This is an account of results in publication PMC6315694, “Synthesis of Pseudellone Analogs and Characterization as Novel T-type Calcium Channel Blockers” (Marine Drugs, 2018).

A value given as a limit tells only on which side of the number the result lay.

Assay [1] concerns L-type calcium channel (CaV1). Briefly: HVA calcium channel FLIPR assay, L-type (SH-SY5Y cells). The conditions noted are these: 1 µM CVID present, N = 3, mean ± SEM, read-out: IC50 CaV1 (HVA CaVs). The format is cell-based, human. On the procedure:
(§1) The human embryonic kidney 293 (HEK 293) cell lines (from Emmanuel Bourinet, Montpellier, France) stably expressing CaV3.2 or CaV3.3 were cultured under 5% carbon dioxide at 37 °C in Dulbecco’s Modified Eagle Medium (DMEM) Glutamax (Gibco, Life Technologies, Carlsbad, CA, USA) supplemented with 10% (v/v) fetal bovine serum (FBS), 100 U/mL penicillin, 100 μg/mL streptomycin (Gibco, Life Technologies), and 750 μg/mL geneticin (G418) (Gibco, Life Technologies). The Chinese Hamster Ovary (CHO) cell lines (Emmanuel Bourinet, Montpellier, France) expressing CaV3.1 were cultured under 5% carbon dioxide at 37 °C in Alpha Minimum Essential Media (MEM) Glutamax (Gibco, Life Technologies), supplemented with 10% (v/v) fetal bovine serum (FBS) and 300 μg/mL geneticin (G418) (Gibco, Life Technologies). The human neuroblastoma SH-SY5 Y cells (Victor Diaz, Goettingen, Germany) were cultured under 5% carbon dioxide at 37 °C in RPMI 1640 antibiotic-free medium (Invitrogen, Carlsbad, CA, USA), supplemented with 15% FBS and 2 mM GlutaMAX™ (Invitrogen). D-PBS (Gibco, Life Technologies) was used to wash the cells, and 0.25% Trypsin-EDTA (Gibco, Life Technologies) was used to detach cells from the flask surface. They were split in a ratio of 1:5 (ideally 1000 cells/cm^2) when they reached 70%–80% confluence (every 2–3 days). Transiently transfected CaV3.1HEK293 T cells were used in FLIPR Assays. HEK 293 T cells were cultured under 5% carbon dioxide at 37 °C in DMEM supplemented with 10% (v/v) FBS. D-PBS was used to wash the cells, and 0.25% Trypsin-EDTA was used to detach cells from the flask surface. The cells were split and seeded at 6 million cells per T175 flask, to reach 70%–80% confluence after 24 h. The next day, 12 μg DNA of human CaV3.1 was incubated in 900 μL serum-free DMEM with 36 μL FuGENE HD transfection reagent (Promega Corporation, Madison, WI, US) (1:3 DNA/Fugene ratio) for 20 min, and then the mixture was added into the cell flask slowly, drop by drop. After the transfection, the cells were cultured under 5% carbon dioxide at 37 °C for 24 h and then moved to a 28 °C incubator.
SH-SY5Y cells were seeded into 384-well black wall clear bottom plates at a density of 15,000 cells per well, resulting in 90%–95% confluence after 24 h. […] The fluorescence readings were recorded and converted as described previously, and agonist containing 90 mM KCl + 5 mM CaCl2 was used in the second addition.
Data were plotted and analyzed using GraphPad Prism v7.0 (GraphPad Software Inc., San Diego, CA, USA). […]

The target of a further assay is T1, human CaV3.1 (Homo sapiens, UniProt O43497).
T1 construct: expressed in transfected cells; host or cells: HEK 293T, transient transfection (FuGENE HD)
Briefly: T-type calcium channel window current FLIPR assay, CaV3.1. The conditions noted are these: for IC50: FLIPR window current assay, transiently transfected HEK293T, N = 3, mean ± SEM, read-out: IC50 CaV3.1 (LVA CaVs). It counts as cell-based. On the procedure:
as §1
(§2) HEK 293 cells stably expressing CaV3.2 or CaV3.3 were seeded into 384-well black wall clear bottom plates (Corning, Lowell, MA, USA) at a density of 30,000 cells per well. Transiently transfected CaV3.1HEK293 T cells were seeded into 384-well black wall clear bottom plates at a density of 60,000 cells per well. Once the cells reached 90%–95% confluence after 24 h, the media were removed from the wells and replaced with 20 μL of 10% calcium 4 dye (Molecular Devices, Sunnyvale, CA, USA) in HBSS-HEPES (containing 5 mM KCl, 10 mM HEPES, 140 mM NaCl, 10 mM glucose, and 0.5 mM CaCl2, pH 7.4) with 0.1% bovine serum albumin (BSA). The cells were incubated for 30 min at 37 °C in the presence of 5% carbon dioxide. Each well on the reagent plates for the first addition contained 15 μL different concentrations of compounds dissolved in HBSS-HEPES containing 0.1% BSA and <0.1% DMSO and was incubated for 20 min after loading. Positive and negative controls contained 15 μL of HBSS-HEPES (0.1% BSA) alone. The plates were placed in the FLIPR^TETRA (Molecular Devices, Sunnyvale, CA, USA) programmed to measure maximum fluorescence intensity following a second addition of the agonist 5 mM CaCl2. The data acquisition parameters were adjusted as follows: Baseline fluorescence of 1500–2000 arbitrary fluorescence units (AFU), emission wavelength of 515–575 nm, and excitation wavelength of 470–495 nm. HBSS-HEPES (0.1% BSA) was used in the second addition as a negative control. One fluorescence reading was taken before the second addition. Then the fluorescence readings were recorded every two seconds for 300 s. Raw fluorescence readings in the form of relative light units were converted to response over baseline using ScreenWorks® (Molecular Devices, version 3.2.0.14) software.
(§3) Data were plotted and analyzed using GraphPad Prism v7.0 (GraphPad Software Inc., San Diego, CA, USA).

The target in another assay is CaV3.3 (Homo sapiens, UniProt Q9P0X4). Briefly: T-type calcium channel window current FLIPR assay, CaV3.3. Conditions: for IC50: FLIPR window current assay, HEK 293 stable, N = 3, mean ± SEM, read-out: IC50 CaV3.3 (LVA CaVs). It counts as cell-based. The procedure:
as §1, §2, §3

Assay [2] relates to voltage-gated calcium channels (VGCCs). Put plainly: FLIPR cell-based assays on VGCCs (overall statement). Also noted: species or system human. The conditions noted are these: all VGCC FLIPR assays (CaV3.1, CaV3.2, CaV3.3, CaV2.2, CaV1). On the procedure: as §2
The next assay deals with T2, N-type CaV2.2 (Homo sapiens, UniProt Q00975).
T2 construct: endogenous in cells
Put plainly: HVA calcium channel FLIPR assay, N-type (SH-SY5Y cells). It counts as cell-based. Conditions: for IC50: 10 µM nifedipine present, N = 3, mean ± SEM, read-out: IC50 CaV2.2 (HVA CaVs). On the procedure:
as §1
SH-SY5Y cells were seeded into 384-well black wall clear bottom plates at a density of 15,000 cells per well, resulting in 90%–95% confluence after 24 h. The media were then removed from the wells and replaced with 20 μL of 10% calcium 4 dye (Molecular Devices) in physiological salt solution (PSS) (containing 5.9 mM KCl, 1.4 mM MgCl2, 10 mM HEPES, 1.2 mM NaH2 PO4, 5 mM NaHCO3, 140 mM NaCl, 11.5 mM glucose, and 1.8 mM CaCl2, pH 7.4) with 0.1% BSA. […] Positive control on the first reagent plate contained 15 μL of PSS (0.1% BSA), whereas PSS (0.1% BSA) containing 1 µM CVID and 10 µM nifedipine (final concentration) was used as a negative control. The fluorescence readings were recorded and converted as described previously, and agonist containing 90 mM KCl + 5 mM CaCl2 was used in the second addition.
Data were plotted and analyzed using GraphPad Prism v7.0 (GraphPad Software Inc., San Diego, CA, USA). A four-parameter logistic Hill equation with variable Hill coefficients was fitted to the data for concentration-response curves. Data are means ± SEM of n independent experiments. Statistical analysis was performed with a paired Student’s t-test with statistical significance at p < 0.05.

Another assay addresses CaV3.2 (Homo sapiens, UniProt O95180). Put plainly: T-type calcium channel window current FLIPR assay, CaV3.2. The format is cell-based. The conditions noted are these: FLIPR window current assay, HEK 293 stable, N = 3, mean ± SEM; read-out: IC50 CaV3.2 (LVA CaVs). The procedure: as §1, §2, §3
Assay [3] concerns T-type calcium channel (CaV3.x). Also noted: method as in PMID 22344687, PMID 19582593. The conditions noted are these: activated current generated from the channel-closed state; cited from earlier work.

Sequence of CaV3.2 (O95180 whole entry): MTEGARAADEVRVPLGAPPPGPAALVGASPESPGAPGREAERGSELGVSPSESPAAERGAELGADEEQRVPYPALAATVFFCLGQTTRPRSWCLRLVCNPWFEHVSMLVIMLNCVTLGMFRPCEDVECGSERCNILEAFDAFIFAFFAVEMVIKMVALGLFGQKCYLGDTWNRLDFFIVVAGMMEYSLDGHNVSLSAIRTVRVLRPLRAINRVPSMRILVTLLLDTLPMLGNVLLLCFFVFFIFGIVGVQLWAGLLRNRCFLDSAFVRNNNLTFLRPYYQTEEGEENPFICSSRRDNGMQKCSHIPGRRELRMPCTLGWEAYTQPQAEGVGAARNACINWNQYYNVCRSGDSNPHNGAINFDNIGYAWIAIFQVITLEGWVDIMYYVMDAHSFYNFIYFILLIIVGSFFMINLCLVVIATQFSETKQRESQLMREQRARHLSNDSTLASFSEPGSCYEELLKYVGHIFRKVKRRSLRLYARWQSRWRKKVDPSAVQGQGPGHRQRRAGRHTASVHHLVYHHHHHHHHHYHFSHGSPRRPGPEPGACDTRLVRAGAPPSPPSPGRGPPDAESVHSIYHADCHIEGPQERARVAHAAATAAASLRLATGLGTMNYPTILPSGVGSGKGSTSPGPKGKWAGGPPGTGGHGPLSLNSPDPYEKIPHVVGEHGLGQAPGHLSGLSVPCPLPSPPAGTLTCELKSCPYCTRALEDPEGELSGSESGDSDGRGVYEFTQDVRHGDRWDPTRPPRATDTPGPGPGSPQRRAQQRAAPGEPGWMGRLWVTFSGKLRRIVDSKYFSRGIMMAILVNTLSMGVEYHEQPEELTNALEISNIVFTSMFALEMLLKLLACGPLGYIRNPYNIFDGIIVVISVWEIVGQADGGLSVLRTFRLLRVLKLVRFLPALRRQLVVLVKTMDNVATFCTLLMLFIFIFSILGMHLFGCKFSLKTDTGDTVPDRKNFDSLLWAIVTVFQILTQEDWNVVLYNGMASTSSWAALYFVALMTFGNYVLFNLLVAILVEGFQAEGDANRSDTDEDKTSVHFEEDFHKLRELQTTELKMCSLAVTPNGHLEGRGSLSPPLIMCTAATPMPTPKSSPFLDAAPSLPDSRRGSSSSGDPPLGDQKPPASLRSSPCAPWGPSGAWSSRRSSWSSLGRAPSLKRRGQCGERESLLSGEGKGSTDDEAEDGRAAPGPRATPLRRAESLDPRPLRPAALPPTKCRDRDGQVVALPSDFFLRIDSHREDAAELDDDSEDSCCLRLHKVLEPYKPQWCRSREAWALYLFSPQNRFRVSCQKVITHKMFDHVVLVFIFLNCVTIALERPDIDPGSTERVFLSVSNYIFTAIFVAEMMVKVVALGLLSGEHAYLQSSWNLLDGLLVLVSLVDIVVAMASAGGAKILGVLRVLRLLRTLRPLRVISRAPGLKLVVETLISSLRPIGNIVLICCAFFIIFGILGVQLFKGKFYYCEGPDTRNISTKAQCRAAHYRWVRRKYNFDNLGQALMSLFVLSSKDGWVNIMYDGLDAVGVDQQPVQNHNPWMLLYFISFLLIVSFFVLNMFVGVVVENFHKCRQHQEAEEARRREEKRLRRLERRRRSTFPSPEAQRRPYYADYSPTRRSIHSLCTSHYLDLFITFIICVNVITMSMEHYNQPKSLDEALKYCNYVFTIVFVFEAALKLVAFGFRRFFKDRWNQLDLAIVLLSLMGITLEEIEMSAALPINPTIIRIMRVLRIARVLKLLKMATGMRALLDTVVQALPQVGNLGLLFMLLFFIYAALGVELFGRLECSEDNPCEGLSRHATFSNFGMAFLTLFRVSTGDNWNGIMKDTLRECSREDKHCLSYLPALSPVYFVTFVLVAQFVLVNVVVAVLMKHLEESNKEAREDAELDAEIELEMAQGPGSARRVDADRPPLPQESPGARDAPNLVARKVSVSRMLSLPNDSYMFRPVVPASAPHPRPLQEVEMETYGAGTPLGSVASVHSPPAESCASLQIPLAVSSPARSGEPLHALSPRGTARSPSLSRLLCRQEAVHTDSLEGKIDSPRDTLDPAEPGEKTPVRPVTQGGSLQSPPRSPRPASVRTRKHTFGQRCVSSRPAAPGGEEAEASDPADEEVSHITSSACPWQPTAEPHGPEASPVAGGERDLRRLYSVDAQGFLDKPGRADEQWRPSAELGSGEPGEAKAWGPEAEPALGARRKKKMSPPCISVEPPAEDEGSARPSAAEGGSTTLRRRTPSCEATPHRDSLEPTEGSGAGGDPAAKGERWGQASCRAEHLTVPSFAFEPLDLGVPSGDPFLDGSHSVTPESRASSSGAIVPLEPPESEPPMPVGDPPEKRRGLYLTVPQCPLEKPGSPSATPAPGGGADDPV
Sequence of CaV3.3 (Q9P0X4 whole entry): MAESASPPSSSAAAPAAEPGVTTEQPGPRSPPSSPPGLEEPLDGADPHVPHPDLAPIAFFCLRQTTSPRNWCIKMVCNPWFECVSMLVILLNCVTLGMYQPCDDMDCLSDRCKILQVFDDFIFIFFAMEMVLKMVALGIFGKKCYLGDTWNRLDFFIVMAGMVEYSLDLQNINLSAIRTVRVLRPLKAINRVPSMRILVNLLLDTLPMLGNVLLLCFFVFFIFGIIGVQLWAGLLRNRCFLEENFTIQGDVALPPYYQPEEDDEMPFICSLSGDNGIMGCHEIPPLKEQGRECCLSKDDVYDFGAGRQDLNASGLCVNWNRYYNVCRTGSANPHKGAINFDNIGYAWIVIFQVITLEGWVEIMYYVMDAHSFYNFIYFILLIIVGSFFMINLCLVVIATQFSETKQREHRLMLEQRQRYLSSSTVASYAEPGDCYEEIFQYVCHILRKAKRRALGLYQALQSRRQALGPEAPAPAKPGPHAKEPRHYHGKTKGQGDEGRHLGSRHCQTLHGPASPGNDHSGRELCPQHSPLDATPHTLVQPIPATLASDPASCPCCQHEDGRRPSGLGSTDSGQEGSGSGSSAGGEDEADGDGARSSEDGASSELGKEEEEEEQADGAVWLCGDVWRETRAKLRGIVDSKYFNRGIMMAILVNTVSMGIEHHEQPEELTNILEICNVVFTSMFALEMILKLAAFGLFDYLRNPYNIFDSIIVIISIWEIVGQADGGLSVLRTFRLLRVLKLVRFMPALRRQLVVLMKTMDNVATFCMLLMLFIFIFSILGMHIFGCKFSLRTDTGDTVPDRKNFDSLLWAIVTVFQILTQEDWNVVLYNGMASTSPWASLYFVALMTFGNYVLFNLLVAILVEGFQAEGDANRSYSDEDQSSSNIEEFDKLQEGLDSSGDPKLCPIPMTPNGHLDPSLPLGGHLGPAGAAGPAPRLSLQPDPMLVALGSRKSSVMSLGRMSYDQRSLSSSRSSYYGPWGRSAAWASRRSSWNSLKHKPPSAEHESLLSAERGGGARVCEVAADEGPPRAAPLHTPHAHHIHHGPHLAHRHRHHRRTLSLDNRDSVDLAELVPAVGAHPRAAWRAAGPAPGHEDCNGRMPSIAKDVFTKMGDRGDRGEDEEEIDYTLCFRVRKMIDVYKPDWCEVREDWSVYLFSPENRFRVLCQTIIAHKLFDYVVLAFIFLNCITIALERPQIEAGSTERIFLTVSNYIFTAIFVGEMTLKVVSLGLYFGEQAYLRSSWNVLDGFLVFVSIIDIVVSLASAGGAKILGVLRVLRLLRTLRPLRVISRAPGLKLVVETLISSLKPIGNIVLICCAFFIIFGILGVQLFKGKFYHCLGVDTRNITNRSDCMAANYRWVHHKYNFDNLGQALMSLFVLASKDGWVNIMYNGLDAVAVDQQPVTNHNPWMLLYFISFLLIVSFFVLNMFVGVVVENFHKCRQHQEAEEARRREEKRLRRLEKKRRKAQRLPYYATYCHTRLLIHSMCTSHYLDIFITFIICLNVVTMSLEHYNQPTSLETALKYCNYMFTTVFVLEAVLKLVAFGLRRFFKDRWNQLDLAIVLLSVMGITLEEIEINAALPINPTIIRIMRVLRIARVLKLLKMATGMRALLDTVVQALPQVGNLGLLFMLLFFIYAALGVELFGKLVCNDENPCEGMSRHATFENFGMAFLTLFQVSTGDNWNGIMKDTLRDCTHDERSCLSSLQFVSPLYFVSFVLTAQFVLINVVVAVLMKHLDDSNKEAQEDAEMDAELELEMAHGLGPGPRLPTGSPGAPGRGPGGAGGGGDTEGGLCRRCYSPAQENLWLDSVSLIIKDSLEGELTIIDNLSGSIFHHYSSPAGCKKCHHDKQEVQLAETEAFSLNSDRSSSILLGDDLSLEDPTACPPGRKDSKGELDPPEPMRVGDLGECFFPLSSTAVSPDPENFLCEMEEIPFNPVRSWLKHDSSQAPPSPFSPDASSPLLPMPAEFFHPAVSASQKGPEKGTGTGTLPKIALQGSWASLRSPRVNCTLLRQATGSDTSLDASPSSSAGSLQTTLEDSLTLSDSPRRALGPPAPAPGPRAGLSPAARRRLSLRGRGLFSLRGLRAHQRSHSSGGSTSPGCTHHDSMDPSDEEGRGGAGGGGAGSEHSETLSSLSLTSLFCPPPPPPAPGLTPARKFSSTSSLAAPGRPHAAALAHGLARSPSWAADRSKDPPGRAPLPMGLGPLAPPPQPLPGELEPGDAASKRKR

As for `CC(C(=O)O)(c1c[nH]c2ccccc12)c1c[nH]c2ccccc12` [Compound 4, 2,2-di(1H-indol-3-yl)propanoic Acid], the IC50 is 264 ± 11.9 µM in assay [1]; 72.28 ± 0.41 µM on human CaV3.1; 119 ± 8.66 µM on CaV3.3; 179 ± 19.7 µM on N-type CaV2.2 (SH-SY5Y); 132 ± 6.13 µM at CaV3.2. Further, the “Inhibition of Ca2+ responses, in words” value in assay [2] is “poor inhibition”.

Turning to `C[C@@H](NC(=O)Cc1ccc(C2CC2)cc1)c1ccc(OCC(F)(F)F)cn1` [TTA-A2], in assay [3], the “Potency for T-type window currents versus activated current, in words” value is given as “better potency for T-type window currents than the activated current”.

Turning to `O=c1[nH]c2ccccc2n1C1CCN(CCCC(c2ccc(F)cc2)c2ccc(F)cc2)CC1` [pimozide, reference compound], the IC50 at CaV3.3 came to 7.71 ± 0.7 µM; at CaV3.2 it was 4.2 ± 1.06 µM.

Consider `CNC(=O)C(NC(=O)C(C)(c1c[nH]c2ccccc12)c1c[nH]c2ccccc12)C(=O)c1c[nH]c2ccccc12` (stereo not drawn) [Compound 1, Pseudellone C], for which the IC50 came out at 322 ± 21.6 µM in assay [1]; 53.5 ± 2.72 µM at human CaV3.1; 26.6 ± 1.23 µM on CaV3.3; 82.5 ± 7.6 µM on N-type CaV2.2 (SH-SY5Y); 44 ± 1.6 µM on CaV3.2. In addition, the “Kind of block of CaV3.1, in words” value at human CaV3.1 (FLIPR) is “partial blocking”. Moreover, the Emax at human CaV3.1 (FLIPR, n = 3, read-out: Emax, inhibition for CaV3.1) is 63.6%; on N-type CaV2.2 (SH-SY5Y, n = 3, read-out: Emax, inhibition for N-type CaV2.2), 39.3%. The “Further reduced potency for CaV3.3 compared to 2” value on CaV3.3 (FLIPR) was greater than 3 fold. In assay [2], the “Inhibition of Ca2+ responses, in words” value was “weak calcium channel blocker”. Besides, the “Kind of block of CaV2.2, in words” value at N-type CaV2.2 was “partial blocking”.

In the case of `CC(C(=O)N[C@@H](Cc1c[nH]c2ccccc12)C(=O)O)(c1c[nH]c2ccccc12)c1c[nH]c2ccccc12` [Compound 3a, (2,2-di(1H-indol-3-yl)propanoyl)-L-tryptophan], the IC50 in assay [1] was found to be 132 ± 1.63 µM; at human CaV3.1, 122 ± 5.96 µM; at CaV3.3, 90.1 ± 4.99 µM; on N-type CaV2.2 (SH-SY5Y), 147 ± 1.72 µM; on CaV3.2, 80.7 ± 6.21 µM. In assay [2], the “Inhibition of Ca2+ responses, in words” value is recorded as “poor inhibition”.

With `CC(C)(C)NC(=O)CN1CCC(CNC(=O)c2cc(F)cc(Cl)c2)CC1` [Compound Z944], in assay [3], the “Potency for T-type window currents versus activated current, in words” value is “better potency for T-type window currents than the activated current”.

In general, IC50 refers to the point on the concentration scale where inhibition reaches its midpoint. As a reminder, the Emax is the size of the effect at its maximum, as opposed to the concentration needed.
